Results on seven molecules are retold here after patent publication US4859779A, “Dopamine-β-hydroxylase inhibitors” (SmithKline Beckman Corporation, priority 1989, dated 1989).

Structures can show the parent of a compound that is named as a salt. Where only a bound is given, the exact number is not on record here.

Assay [1] addresses T1, DBH (Homo sapiens, UniProt P09172).
T1 sequence (P09172 1-617): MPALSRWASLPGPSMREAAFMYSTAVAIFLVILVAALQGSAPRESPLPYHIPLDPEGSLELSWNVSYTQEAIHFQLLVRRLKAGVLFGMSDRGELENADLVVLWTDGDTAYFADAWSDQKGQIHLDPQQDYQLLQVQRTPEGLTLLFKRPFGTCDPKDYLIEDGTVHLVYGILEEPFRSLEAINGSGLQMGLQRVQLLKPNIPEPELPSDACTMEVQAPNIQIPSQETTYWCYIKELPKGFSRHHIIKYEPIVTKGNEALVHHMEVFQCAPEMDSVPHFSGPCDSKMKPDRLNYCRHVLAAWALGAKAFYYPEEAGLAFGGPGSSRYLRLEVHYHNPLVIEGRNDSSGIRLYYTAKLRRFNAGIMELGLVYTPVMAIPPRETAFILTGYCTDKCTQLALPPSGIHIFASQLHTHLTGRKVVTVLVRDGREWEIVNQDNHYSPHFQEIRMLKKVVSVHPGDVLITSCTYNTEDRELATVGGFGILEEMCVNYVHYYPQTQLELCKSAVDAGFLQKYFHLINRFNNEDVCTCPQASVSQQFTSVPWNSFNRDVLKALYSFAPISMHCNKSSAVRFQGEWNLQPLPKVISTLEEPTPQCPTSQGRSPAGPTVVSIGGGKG
Particulars: literature reports; cited from earlier work.

For assay [2], the system named is spontaneously hypertensive rats. Nature of the assay: mean arterial blood pressure in spontaneously hypertensive rats (indwelling tail artery cannulae). The format is in vivo, rat. To be noted: 50 mg/kg intraperitoneally. How it is done: Further, spontaneously hypertensive rats were treated with a suspension or solution of N-(2-aminoethyl)-1-(3,5-difluorobenzyl)-2-mercaptoimidazole-5-carboxamide,formate at a dose of 50 mg/kg intraperitoneally, and mean arterial blood pressure was monitored for 260 minutes using indwelling cannulae in the tail arteries.

For assay [3] the following is noted: Ehrreich et al., 1976; cited from earlier work.

`CN(C)C(=S)SCc1ccc(C(=O)O)nc1` [5-(dimethyldithiocarbamoylmethyl)picolinic acid]: the “DBH inhibition (in words)” value in assay [1] is “DBH inhibitors”.
For the molecule `NOCc1ccccc1` [Benzyloxyamine], in assay [1], the “DBH inhibition (in words)” value was “apparently act as competitive inhibitors”.
On to `O=C(O)c1ccc(CCCCCl)cn1` [5-(4-chlorobutyl) picolinic acid], for which the “DBH inhibition (in words)” value in assay [1] is “inhibit DBH”.
For `NCCNC(=O)c1cnc(S)n1Cc1cc(F)cc(F)c1` [N-(2-Aminoethyl)-1-(3,5-difluorobenzyl)-2-mercaptoimidazole-5-carboxamide,formate], the “blood pressure reduction compared to vehicle-treated controls” value in assay [2] (suspension or solution, mean arterial blood pressure, within 30 minutes following treatment) was “significant blood pressure reductions”. In addition, the “time to significant blood pressure reduction” value in assay [2] (versus vehicle-treated controls) is not above 30 min.
Take `CCCCc1ccc(C(N)=O)nc1` [Bupicomide, 5-(n-butyl)picolinamine]: the antihypertensive activity result in assay [3] was “antihypertensive activity”. Also, the “DBH inhibition (in words)” value in assay [1] is “DBH inhibitor”.
`O=C(O)c1ccc(CCC(Br)CBr)cn1` (stereo not drawn) [5-(3,4-dibromobutyl)picolinic acid]: the “DBH inhibition (in words)” value in assay [1] is on record as “DBH inhibitors”.
`NNCc1ccccc1` [benzylhydrazine]: the “DBH inhibition (in words)” value in assay [1] was “apparently act as competitive inhibitors”.
